According to patent US6355799B1, “Substituted benzene compounds, process for their preparation, and herbicidal and defoliant compositions containing them” (ISK Americas Incorporated, priority 1997, dated 2002):

Experiments:
Type in all cases: in vivo
[1] = system: upland rice (Oryza sp., var. Tebonnet, RICE); assay: Pre-emerge test, crop safety; settings: pre-emerge, 14 days after application, rating scale 0-100
Method in brief: (§1)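 Fourteen days after spraying, crop and weed injury was graded visually from 0, no effect, to 100, every plant dead. Test substances were dissolved in acetone and applied at 15–1000 g ai/ha with a flat-fan nozzle. Application was either pre-emergence, one day after sowing, or post-emergence at the 2–3 leaf stage.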

[2] = system: field corn (Zea mays L., var. Dekalb 535, CORN); assay: Pre-emerge test, crop safety; settings: pre-emerge, 14 days after application, rating scale 0-100
Method in brief: as §1

[3] = system: upland rice (Oryza sp., var. Tebonnet, RICE); assay: Post-emerge test, crop safety; settings: rating scale 0-100 (0 no damage, 100 complete death), 14 days after application
Method in brief: (§2)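 Herbicidal damage is scored 0 (none) to 100 (complete plant death) two weeks after a simulated field spray. Rates span 15–1000 g ai/ha, delivered in acetone at 187 l/ha. For post-emergence treatments, plants have 2–3 leaves and the spray carries 0.25% v/v non-ionic surfactant.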

[4] = system: field corn (Zea mays L., var. Dekalb 535, CORN); assay: Post-emerge test, crop safety; settings: rating scale 0-100 (0 no damage, 100 complete death), 14 days after application
Method in brief: as §2

[5] = system: green foxtail (Setaria viridis, SETVI); assay: Pre-emerge test, greenhouse herbicide activity screening; settings: pre-emerge, 14 days after application, rating scale 0-100
Method in brief: as §2

[6] = system: lambsquarters (Chenopodium album, CHEAL); assay: as above; settings: pre-emerge, 14 days after application, rating scale 0-100
Method in brief: as §2

[7] = system: barnyardgrass (Echinochloa crus-galli, ECHCG); assay: as above; settings: pre-emerge, 14 days after application, rating scale 0-100
Method in brief: as §2

[8] = system: sicklepod (Cassia obtusifolia, CASOB); assay: as above; settings: pre-emerge, 14 days after application, rating scale 0-100
Method in brief: as §2

[9] = system: ivyleaf morningglory (Ipomoea hederacea, IPOHE); assay: as above; settings: pre-emerge, 14 days after application, rating scale 0-100
Method in brief: as §2

[10] = system: common ragweed (Ambrosia artemisizfolia L., AMBEL); assay: as above; settings: pre-emerge, 14 days after application, rating scale 0-100
Method in brief: as §2

[11] = system: large crabgrass (Digitaria sanguinalis, DIGSA); assay: as above; settings: pre-emerge, 14 days after application, rating scale 0-100
Method in brief: as §2

[12] = system: velvetleaf (Abutilon theophrasti, ABUTH); assay: as above; settings: pre-emerge, 14 days after application, rating scale 0-100
Method in brief: as §2

[13] = system: johnsongrass (Sorghum halepense, SORHA); assay: as above; settings: pre-emerge, 14 days after application, rating scale 0-100
Method in brief: as §2

[14] = system: green foxtail (Setaria viridis, SETVI); assay: Post-emerge test, greenhouse herbicide activity screening; settings: rating scale 0-100 (0 no damage, 100 complete death), 14 days after application
Method in brief: (§3)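 Plants grown in 10 cm pots of sandy loam mix received acetone-dissolved compounds through a moving flat-fan nozzle. Doses ranged from 15 to 1000 g ai/ha. Pre-emerge pots were seeded one day earlier, post-emerge pots 8–21 days earlier. Fourteen days on, each pot was graded 0–100 for damage.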

[15] = system: lambsquarters (Chenopodium album, CHEAL); assay: as above; settings: rating scale 0-100 (0 no damage, 100 complete death), 14 days after application
Method in brief: as §3

[16] = system: barnyardgrass (Echinochloa crus-galli, ECHCG); assay: as above; settings: rating scale 0-100 (0 no damage, 100 complete death), 14 days after application
Method in brief: as §3

[17] = system: sicklepod (Cassia obtusifolia, CASOB); assay: as above; settings: rating scale 0-100 (0 no damage, 100 complete death), 14 days after application
Method in brief: as §3

[18] = system: redroot pigweed (Amaranthus retroflexus, AMARE); assay: as above; settings: rating scale 0-100 (0 no damage, 100 complete death), 14 days after application
Method in brief: as §3

[19] = system: ivyleaf morningglory (Ipomoea hederacea, IPOHE); assay: as above; settings: rating scale 0-100 (0 no damage, 100 complete death), 14 days after application
Method in brief: as §3

[20] = system: common ragweed (Ambrosia artemisizfolia L., AMBEL); assay: as above; settings: Rate 63 g ai/ha; rating scale 0-100 (0 no damage, 100 complete death); 14 days after application
Method in brief: as §3

[21] = system: large crabgrass (Digitaria sanguinalis, DIGSA); assay: as above; settings: rating scale 0-100 (0 no damage, 100 complete death), 14 days after application
Method in brief: as §3

[22] = system: velvetleaf (Abutilon theophrasti, ABUTH); assay: as above; settings: rating scale 0-100 (0 no damage, 100 complete death), 14 days after application
Method in brief: as §3

[23] = system: johnsongrass (Sorghum halepense, SORHA); assay: as above; settings: rating scale 0-100 (0 no damage, 100 complete death), 14 days after application
Method in brief: as §3

[24] = system: redroot pigweed (Amaranthus retroflexus, AMARE); assay: Pre-emerge test, greenhouse herbicide activity screening; settings: pre-emerge, 14 days after application, rating scale 0-100
Method in brief: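 Visual ratings on a 0-100 scale (0 no damage, 100 all plants dead) were taken at 14 days after treatment. Rates of 15-1000 g ai/ha in acetone, 187 l/ha, were sprayed onto soil one day after planting (pre-emerge) or onto 2-3 leaf plants with 0.25% v/v surfactant (post-emerge).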

Structure (SMILES): COc1c(Cl)cc(F)c(-n2c(=O)cc(C(F)(F)F)n(C)c2=O)c1CC(C)(Cl)C(=O)OCCSC (centres unmarked) [14-48]
- phytotoxicity rating RICE ([1]; 63 g ai/ha): 30
- phytotoxicity rating RICE ([1]; 250 g ai/ha): 70
- phytotoxicity rating CORN ([2]; 63 g ai/ha): 0
- phytotoxicity rating CORN ([2]; 250 g ai/ha): 40
- Post-emerge phytotoxicity rating RICE (crop damage) ([3]; Rate 63 g ai/ha): 70
- Post-emerge phytotoxicity rating RICE (crop damage) ([3]; Rate 250 g ai/ha): 100
- Post-emerge phytotoxicity rating CORN (crop damage) ([4]; Rate 63 g ai/ha): 40
- Post-emerge phytotoxicity rating CORN (crop damage) ([4]; Rate 250 g ai/ha): 100
- phytotoxicity rating SETVI ([5]; 63 g ai/ha): 0
- phytotoxicity rating SETVI ([5]; 250 g ai/ha): 50
- phytotoxicity rating CHEAL ([6]; 63 g ai/ha): 50
- phytotoxicity rating CHEAL ([6]; 250 g ai/ha): 100
- phytotoxicity rating ECHCG ([7]; 63 g ai/ha): 0
- phytotoxicity rating ECHCG ([7]; 250 g ai/ha): 50
- phytotoxicity rating CASOB ([8]; 63 g ai/ha): 0
- phytotoxicity rating CASOB ([8]; 250 g ai/ha): 0
- phytotoxicity rating IPOHE ([9]; 63 g ai/ha): 0
- phytotoxicity rating IPOHE ([9]; 250 g ai/ha): 0
- phytotoxicity rating AMBEL ([10]; 63 g ai/ha): 0
- phytotoxicity rating AMBEL ([10]; 250 g ai/ha): 80
- phytotoxicity rating DIGSA ([11]; 63 g ai/ha): 0
- phytotoxicity rating DIGSA ([11]; 250 g ai/ha): 70
- phytotoxicity rating ABUTH ([12]; 63 g ai/ha): 90
- phytotoxicity rating ABUTH ([12]; 250 g ai/ha): 100
- phytotoxicity rating SORHA ([13]; 63 g ai/ha): 0
- phytotoxicity rating SORHA ([13]; 250 g ai/ha): 0
- Post-emerge Herbicidal Activity, phytotoxicity rating SETVI ([14]; Rate 63 g ai/ha): 50
- Post-emerge Herbicidal Activity, phytotoxicity rating SETVI ([14]; Rate 250 g ai/ha): 100
- Post-emerge Herbicidal Activity, phytotoxicity rating CHEAL ([15]; Rate 63 g ai/ha): 100
- Post-emerge Herbicidal Activity, phytotoxicity rating CHEAL ([15]; Rate 250 g ai/ha): 100
- Post-emerge Herbicidal Activity, phytotoxicity rating ECHCG ([16]; Rate 63 g ai/ha): 50
- Post-emerge Herbicidal Activity, phytotoxicity rating ECHCG ([16]; Rate 250 g ai/ha): 100
- Post-emerge Herbicidal Activity, phytotoxicity rating CASOB ([17]; Rate 63 g ai/ha): 0
- Post-emerge Herbicidal Activity, phytotoxicity rating CASOB ([17]; Rate 250 g ai/ha): 100
- Post-emerge Herbicidal Activity, phytotoxicity rating AMARE ([18]; Rate 63 g ai/ha): 100
- Post-emerge Herbicidal Activity, phytotoxicity rating AMARE ([18]; Rate 250 g ai/ha): 100
- Post-emerge Herbicidal Activity, phytotoxicity rating IPOHE ([19]; Rate 63 g ai/ha): 0
- Post-emerge Herbicidal Activity, phytotoxicity rating IPOHE ([19]; Rate 250 g ai/ha): 100
- Post-emerge Herbicidal Activity, phytotoxicity rating AMBEL [20]: 80
- Post-emerge Herbicidal Activity, phytotoxicity rating DIGSA ([21]; Rate 63 g ai/ha): 70
- Post-emerge Herbicidal Activity, phytotoxicity rating DIGSA ([21]; Rate 250 g ai/ha): 90
- Post-emerge Herbicidal Activity, phytotoxicity rating ABUTH ([22]; Rate 63 g ai/ha): 100
- Post-emerge Herbicidal Activity, phytotoxicity rating ABUTH ([22]; Rate 250 g ai/ha): 100
- Post-emerge Herbicidal Activity, phytotoxicity rating SORHA ([23]; Rate 63 g ai/ha): 0
- Post-emerge Herbicidal Activity, phytotoxicity rating SORHA ([23]; Rate 250 g ai/ha): 90
- phytotoxicity rating AMARE ([24]; 63 g ai/ha): 90
- phytotoxicity rating AMARE ([24]; 250 g ai/ha): 100
